How the values were obtained:
[1] = tested on: LnCaP cells; assay: Caspase 3 activation apoptosis assay in LnCaP cells; format: cell-based, human
Experimental: (§1) The herein disclosed inhibitors were evaluated as to the ability to increase cell death. Inhibitors of Akt and inhibitors of Akt and a protein kinase were assessed alone and in combination to determine the effect on caspase 3 activation.
(§2) Apoptosis Assay: Caspase 3 Activation
(§3) Cells were seeded in 96 well plates at concentrations ranging from 2×10^3 to 1×10^4 cells per well in their respective growth media. For anchorage independent assays (spheroids) cells were plated in 96 well plates that had been coated with poly-heme(poly 2-hydroxyethylmethacrylate [Sigma] 10 mg/ml in 95% ethanol). 72 hours later caspase 3 assays were set up as follows:
(§4) a. For standard combination assays, compounds were added at respective concentrations indicated and plates incubated at 37° C. in a CO2 incubator for 18 hours. For standard combination assays utilizing treatment with camptothecin, compounds and camptothecin were added at the same time at the respective concentrations indicated.
(§5) b. For combinations involving addition of the death receptor ligand TRAIL/Apo2L (Research Diagnostics) compounds were added for 1.5 hours prior to addition of TRAIL and plates incubated an additional 3 to 4 hours post TRAIL addition. In the case of the time course, plates were incubated for 2, 3, 4, 5, 6 and 7 hrs with Trail ligand before ending the assay. […]

[2] = tested on: LnCaP/Akt3 cell line; assay: Caspase 3 activation apoptosis assay in LnCaP/Akt3 cells; format: cell-based, human; conditions: FIG. 4 (b)
Experimental: as §1, §2, §3, §4, §5

[3] = tested on: MDA-MB468 cells; assay: Caspase 3 activation apoptosis assay in MDA-MB468 cells; format: cell-based, human; conditions: FIG. 6 (a)
Experimental: as §1, §2, §3, §4, §5

[4] = tested on: Akt1, Akt2 and Akt3; assay: Akt kinase assays (HTRF, GSK-derived biotinylated peptide substrate); format: biochemical, human; conditions: as characterised in the figure legends
Experimental: Activated AKT isoforms and pleckstrin homology domain deletion constructs were assayed utilizing a GSK-derived biotinylated peptide substrate. The extent of peptide phosphorylation was determined by Homogeneous Time Resolved Fluorescence (HTRF) using a lanthamide chelate (Lance)-coupled monoclonal antibody specific for the phosphopeptide in combination with a streptavidin-linked allophycocyanin (SA-APC) fluorophore which will bind to the biotin moiety on the peptide. When the Lance and APC are in proximity (i.e. bound to the same phosphopeptide molecule), a non-radiative energy transfer takes place from the Lance to the APC, followed by emission of light from APC at 665 nm.
The reaction is assembled by adding 16 TL of the ATP/MgCl2 working solution to the appropriate wells of a 96-well microtiter plate. Inhibitor or vehicle (1.0 Tl) is added followed by 10 Tl of peptide working solution. The reaction is started by adding 13 Tl of the enzyme working solution and mixing. The reaction is allowed to proceed for 50 min and then stopped by the addition of 60 Tl HTRF quench buffer. The stopped reactions were incubated at room temperature for at least 30 min and then read on the Discovery instrument.

[5] = tested on: MCF7 cells; assay: Caspase 3 activation apoptosis assay in MCF7 cells; format: cell-based, human; conditions: co-treatment with Camptothecin, FIG. 3
Experimental: as §1, §2, §3, §4, §5

Row | Structure (SMILES) | Caspase 3 activity in the presence of Trail ([1]; FIG. 4 (a)) | Caspase 3 activity in the presence of Trail [2] | Caspase 3 activity in the presence of Trail [3] | Akt isoform selectivity [4] | fold increase in Caspase 3 activation over Camptothecin alone [5] [fold] | fold increase in Caspase 3 activation over Trail alone ([1]; + TRAIL ligand, FIG. 1) [fold]
1 | CN(C)CC(C)(C)CNc1nn2c(-c3ccccc3)nnc2cc1C1CCC1 [Compound 1, N′-(7-Cyclobutyl-3-phenyl-[1,2,4]triazolo[4,3-b]pyridazin-6-yl)-2,2,N,N-tetramethyl-propane-1,3-diamine] | increase in Caspase 3 activity | increase in Caspase 3 activity | increase in Caspase 3 activity | selective Akt1 inhibitor | – | –
2 | O=c1[nH]c2ccccc2n1C1CCN(Cc2ccc(-c3nc4cc5nc[nH]c5cc4nc3-c3ccccc3)cc2)CC1 [Compound 12-5, 1-{1-[4-(7-Phenyl-1H-imidazo[4,5-g]quinoxalin-6-yl)benzyl]piperidin-4-yl}-1,3-dihydro-2H-benzimidazol-2-one] | – | – | – | selective Akt1 and Akt2 inhibitor | 5.8 | –
3 | NC(=O)c1[nH]c2ccc(Br)cc2c1S(=O)(=O)N1CCOCC1 [Compound A] | – | – | – | – | 8.7 | 1.2
